From US12559492B2, “BRAF degraders” (C4 Therapeutics, Inc., priority 2020, dated 2026)
Where two headings read alike, the source gives them in different places.

Biological target: BRAF^V600E protein (Homo sapiens, UniProt P15056, V600E)
Experiment: HiBiT cellular BRAF V600E degradation assay
Type: cell-based
Settings: for DC50: A375.10 cells (HiBiT tag knocked in at N-terminal of BRAF V600E), concentration at which 50% of total cellular BRAF V600E is degraded; for Emax: read-out: HiBit 24 h Emax
[1] = A375.10 cells, 24 h incubation, Emax = amount of residual protein remaining in the cell after compound treatment

Chain of BRAF^V600E protein (P15056 whole entry V600E): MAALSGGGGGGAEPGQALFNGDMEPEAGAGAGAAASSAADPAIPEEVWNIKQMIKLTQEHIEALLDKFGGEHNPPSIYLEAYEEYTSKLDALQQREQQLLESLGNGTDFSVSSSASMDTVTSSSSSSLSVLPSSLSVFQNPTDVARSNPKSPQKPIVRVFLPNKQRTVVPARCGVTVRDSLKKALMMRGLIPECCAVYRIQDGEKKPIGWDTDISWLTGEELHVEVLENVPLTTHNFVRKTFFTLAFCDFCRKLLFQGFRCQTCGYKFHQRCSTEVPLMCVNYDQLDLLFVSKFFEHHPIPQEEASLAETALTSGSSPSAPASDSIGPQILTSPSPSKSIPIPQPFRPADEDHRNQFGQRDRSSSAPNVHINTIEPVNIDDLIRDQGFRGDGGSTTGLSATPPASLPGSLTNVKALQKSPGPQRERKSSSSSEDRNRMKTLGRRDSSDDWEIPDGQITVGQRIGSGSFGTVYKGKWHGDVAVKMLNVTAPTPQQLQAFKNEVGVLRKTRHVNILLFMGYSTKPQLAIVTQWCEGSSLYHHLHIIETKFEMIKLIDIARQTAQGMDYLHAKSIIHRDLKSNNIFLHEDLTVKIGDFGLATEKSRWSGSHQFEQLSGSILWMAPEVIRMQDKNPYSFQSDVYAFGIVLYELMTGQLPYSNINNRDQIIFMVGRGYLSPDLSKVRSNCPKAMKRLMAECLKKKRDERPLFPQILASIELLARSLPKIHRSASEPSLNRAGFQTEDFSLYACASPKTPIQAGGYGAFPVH

DC50 (24 h incubation) | Emax [1] | HiBit 24 h Emax [1] | SMILES | Emax
9.97 nM | 3.79% | – | CCN(C)S(=O)(=O)Nc1ccc(F)c(C(=O)c2c[nH]c3ncc(-c4cnc(N5CCN(C(=O)CN6CCC(c7ccc(NC8CCC(=O)NC8=O)cc7)CC6)CC5)nc4)c(C)c23)c1F (stereo not drawn) [Example 65, 5-[2-[4-[2-[4-[4-[(2,6-dioxo-3-piperidyl)amino]phenyl]-1-piperidyl]acetyl]piperazin-1-yl]pyrimidin-5-yl]-3-[3-[[ethyl(methyl)sulfamoyl]amino]-2,6-difluoro-benzoyl]-4-methyl-1H-pyrrolo[2,3-b]pyridine] | –
3.06 nM | 8.1% | – | CCN(C)S(=O)(=O)Nc1ccc(F)c(C(=O)c2c[nH]c3ncc(-c4cnc(N5CCN(C(=O)CN6CCC(c7ccc(NC8CCC(=O)NC8=O)cc7)CC6)CC5)nc4)c(F)c23)c1F (stereo not drawn) [Example 66, 5-[2-[4-[2-[4-[4-[(2,6-dioxo-3-piperidyl)amino]phenyl]-1-piperidyl]acetyl]piperazin-1-yl]pyrimidin-5-yl]-3-[3-[[ethyl(methyl)sulfamoyl]amino]-2,6-difluoro-benzoyl]-4-fluoro-1H-pyrrolo[2,3-b]pyridine] | –
12.3 nM | – | 8.05% | CCN(C)S(=O)(=O)Nc1ccc(F)c(C(=O)c2c[nH]c3ncc(-c4ccc(N5CCN(C(=O)CN6CCC(c7ccc(O[C@H]8CCC(=O)NC8=O)cc7)CC6)CC5)nc4)cc23)c1F [Example 73, 5-[6-[4-[2-[4-[4-[[(3S)-2,6-dioxo-3-piperidyl]oxy]phenyl]-1-piperidyl]acetyl]piperazin-1-yl]-3-pyridyl]-3-[3-[[ethyl(methyl)sulfamoyl]amino]-2,6-difluoro-benzoyl]-1H-pyrrolo[2,3-b]pyridine] | –
32.5 nM | – | 9.07% | CCN(C)S(=O)(=O)Nc1ccc(F)c(C(=O)c2c[nH]c3ncc(-c4ccc(N5CCN(C(=O)CN6CCC(c7ccc(O[C@@H]8CCC(=O)NC8=O)cc7)CC6)CC5)nc4)cc23)c1F [Example 74, 5-[6-[4-[2-[4-[4-[[(3R)-2,6-dioxo-3-piperidyl]oxy]phenyl]-1-piperidyl]acetyl]piperazin-1-yl]-3-pyridyl]-3-[3-[[ethyl(methyl)sulfamoyl]amino]-2,6-difluoro-benzoyl]-1H-pyrrolo[2,3-b]pyridine] | –
6.26 nM | 11.6% | – | CCN(C)S(=O)(=O)Nc1ccc(F)c(C(=O)c2c[nH]c3ncc(-c4ccc(N5CCN(C(=O)CN6CCC(Nc7ccc8c(C9CCC(=O)NC9=O)nn(C)c8c7)CC6)CC5)nc4)cc23)c1F (stereo not drawn) [Example 75, 3-(2,6-dioxo-3-piperidyl)-6-[[1-[2-[4-[5-[3-[3-[[ethyl(methyl)sulfamoyl]amino]-2,6-difluoro-benzoyl]-1H-pyrrolo[2,3-b]pyridin-5-yl]-2-pyridyl]piperazin-1-yl]-2-oxo-ethyl]-4-piperidyl]amino]-1-methyl-indazole] | –
7.81 nM | 14.2% | – | CCN(C)S(=O)(=O)Nc1ccc(F)c(C(=O)c2c[nH]c3ncc(-c4ccc(N5CCN(C(=O)CC6(O)CCN(c7ccc(NC8CCC(=O)NC8=O)cc7)CC6)CC5)nc4)cc23)c1F (stereo not drawn) [Example 76, 5-[6-[4-[2-[1-[4-[(2,6-dioxo-3-piperidyl)amino]phenyl]-4-hydroxy-4-piperidyl]acetyl]piperazin-1-yl]-3-pyridyl]-3-[3-[[ethyl(methyl)sulfamoyl]amino]-2,6-difluoro-benzoyl]-1H-pyrrolo[2,3-b]pyridine] | –
9.89 nM | 23.3% | – | CCN(C)S(=O)(=O)Nc1ccc(F)c(C(=O)c2c[nH]c3ncc(-c4ccc(N5CCN(C(=O)CC6(O)CCN(c7ccc(NC8CCC(=O)NC8=O)cn7)CC6)CC5)nc4)cc23)c1F (stereo not drawn) [Example 78, 5-[6-[4-[2-[1-[5-[(2,6-dioxo-3-piperidyl)amino]-2-pyridyl]-4-hydroxy-4-piperidyl]acetyl]piperazin-1-yl]-3-pyridyl]-3-[3-[[ethyl(methyl)sulfamoyl]amino]-2,6-difluoro-benzoyl]-1H-pyrrolo[2,3-b]pyridine] | –
2.13 nM | 9.51% | – | CCN(C)S(=O)(=O)Nc1ccc(F)c(C(=O)c2c[nH]c3ncc(-c4ccc(N5CCN(C(=O)CC6(O)CCN(c7ccc(NC8CCC(=O)NC8=O)cc7F)CC6)CC5)nc4)cc23)c1F (stereo not drawn) [Example 79, 5-[6-[4-[2-[1-[4-[(2,6-dioxo-3-piperidyl)amino]-2-fluoro-phenyl]-4-hydroxy-4-piperidyl]acetyl]piperazin-1-yl]-3-pyridyl]-3-[3-[[ethyl(methyl)sulfamoyl]amino]-2,6-difluoro-benzoyl]-1H-pyrrolo[2,3-b]pyridine] | –
2.97 nM | 9.93% | – | CCN(C)S(=O)(=O)Nc1ccc(F)c(C(=O)c2c[nH]c3ncc(-c4ccc(N5CCN(C(=O)CC6(O)CCN(c7ncc(NC8CCC(=O)NC8=O)cc7F)CC6)CC5)nc4)cc23)c1F (stereo not drawn) [Example 80, 5-[6-[4-[2-[1-[5-[(2,6-dioxo-3-piperidyl)amino]-3-fluoro-2-pyridyl]-4-hydroxy-4-piperidyl]acetyl]piperazin-1-yl]-3-pyridyl]-3-[3-[[ethyl(methyl)sulfamoyl]amino]-2,6-difluoro-benzoyl]-1H-pyrrolo[2,3-b]pyridine] | –
3.14 nM | – | 9.62% | CCN(C)S(=O)(=O)Nc1ccc(F)c(C(=O)c2c[nH]c3ncc(-c4ccc(N5CCN(C(=O)CN6CCC(c7ccc(NC8CCC(=O)NC8=O)cc7)CC6)CC5)cc4)cc23)c1F (stereo not drawn) [Example 84, 5-[4-[4-[2-[4-[4-[(2,6-dioxo-3-piperidyl)amino]phenyl]-1-piperidyl]acetyl]piperazin-1-yl]phenyl]-3-[3-[[ethyl(methyl)sulfamoyl]amino]-2,6-difluoro-benzoyl]-1H-pyrrolo[2,3-b]pyridine] | –
4.29 nM | 11.8% | – | CCN(C)S(=O)(=O)Nc1ccc(F)c(C(=O)c2c[nH]c3ncc(-c4ccc(N5CCN(C(=O)CC6(O)CCN(c7ccc(NC8CCC(=O)NC8=O)cc7)CC6)CC5)cc4)cc23)c1F (stereo not drawn) [Example 86, 5-[4-[4-[2-[1-[4-[(2,6-dioxo-3-piperidyl)amino]phenyl]-4-hydroxy-4-piperidyl]acetyl]piperazin-1-yl]phenyl]-3-[3-[[ethyl(methyl)sulfamoyl]amino]-2,6-difluoro-benzoyl]-1H-pyrrolo[2,3-b]pyridine] | –
13.3 nM | 9.64% | – | CCN(C)S(=O)(=O)Nc1ccc(F)c(C(=O)c2c[nH]c3ncc(-c4ccc(N5CCN(C(=O)CC6(O)CCN(c7ccc(NC8CCC(=O)NC8=O)cc7F)C6)CC5)cc4)cc23)c1F (stereo not drawn) [Example 87, 5-[4-[4-[2-[1-[4-[(2,6-dioxo-3-piperidyl)amino]-2-fluoro-phenyl]-3-hydroxy-pyrrolidin-3-yl]acetyl]piperazin-1-yl]phenyl]-3-[3-[[ethyl(methyl)sulfamoyl]amino]-2,6-difluoro-benzoyl]-1H-pyrrolo[2,3-b]pyridine] | –
15.7 nM | 22.2% | – | CCN(C)S(=O)(=O)Nc1ccc(F)c(C(=O)c2c[nH]c3ncc(-c4ccc(N5CCN(C(=O)CC6(O)CCN(c7ccc(NC8CCC(=O)NC8=O)cn7)CC6)CC5)cc4)cc23)c1F (stereo not drawn) [Example 88, 5-[4-[4-[2-[1-[5-[(2,6-dioxo-3-piperidyl)amino]-2-pyridyl]-4-hydroxy-4-piperidyl]acetyl]piperazin-1-yl]phenyl]-3-[3-[[ethyl(methyl)sulfamoyl]amino]-2,6-difluoro-benzoyl]-1H-pyrrolo[2,3-b]pyridine] | –
1.4 nM | 8.6% | – | CCN(C)S(=O)(=O)Nc1ccc(F)c(C(=O)c2c[nH]c3ncc(-c4ccc(N5CCN(C(=O)CC6(O)CCN(c7ccc(NC8CCC(=O)NC8=O)cc7F)CC6)CC5)cc4)cc23)c1F (stereo not drawn) [Example 89, 5-[4-[4-[2-[1-[4-[(2,6-dioxo-3-piperidyl)amino]-2-fluoro-phenyl]-4-hydroxy-4-piperidyl]acetyl]piperazin-1-yl]phenyl]-3-[3-[[ethyl(methyl)sulfamoyl]amino]-2,6-difluoro-benzoyl]-1H-pyrrolo[2,3-b]pyridine] | –
2.13 nM | 7.44% | – | CCN(C)S(=O)(=O)Nc1ccc(F)c(C(=O)c2c[nH]c3ncc(-c4ccc(N5CCN(C(=O)CC6(O)CCN(c7ncc(NC8CCC(=O)NC8=O)cc7F)CC6)CC5)cc4)cc23)c1F (stereo not drawn) [Example 90, 5-[4-[4-[2-[1-[5-[(2,6-dioxo-3-piperidyl)amino]-3-fluoro-2-pyridyl]-4-hydroxy-4-piperidyl]acetyl]piperazin-1-yl]phenyl]-3-[3-[[ethyl(methyl)sulfamoyl]amino]-2,6-difluoro-benzoyl]-1H-pyrrolo[2,3-b]pyridine] | –
22.9 nM | 4.78% | – | CCN(C)S(=O)(=O)Nc1ccc(F)c(C(=O)c2c[nH]c3ncc(-c4ccc(C5=CCN(C(=O)CC6CCN(c7ccc(NC8CCC(=O)NC8=O)cc7)CC6)CC5)cc4)cc23)c1F (stereo not drawn) [Example 92, 5-[4-[1-[2-[1-[4-[(2,6-dioxo-3-piperidyl)amino]phenyl]-4-piperidyl]acetyl]-3,6-dihydro-2H-pyridin-4-yl]phenyl]-3-[3-[[ethyl(methyl)sulfamoyl]amino]-2,6-difluoro-benzoyl]-1H-pyrrolo[2,3-b]pyridine] | –

SMILES | DC50 (24 h incubation) | Emax [1] | HiBit 24 h Emax [1] | Emax
CCN(C)S(=O)(=O)Nc1ccc(F)c(C(=O)c2c[nH]c3ncc(-c4cnc(N5CC6(CN(C(=O)CN7CCC(c8ccc(NC9CCC(=O)NC9=O)cc8)CC7)C6)C5)nc4)cc23)c1F (stereo not drawn) [Example 64, 5-[2-[2-[2-[4-[4-[(2,6-dioxo-3-piperidyl)amino]phenyl]-1-piperidyl]acetyl]-2,6-diazaspiro[3.3]heptan-6-yl]pyrimidin-5-yl]-3-[3-[[ethyl(methyl)sulfamoyl]amino]-2,6-difluoro-benzoyl]-1H-pyrrolo[2,3-b]pyridine] | 7.21 nM | 9.33% | – | –
CCN(C)S(=O)(=O)Nc1ccc(F)c(C(=O)c2c[nH]c3ncc(-c4cnc(N5CCN(C(=O)CN6CCC(c7ccc(NC8CCC(=O)NC8=O)cc7)CC6)CC5)c(C#N)c4)cc23)c1F (stereo not drawn) [Example 82, 5-[5-cyano-6-[4-[2-[4-[4-[(2,6-dioxo-3-piperidyl)amino]phenyl]-1-piperidyl]acetyl]piperazin-1-yl]-3-pyridyl]-3-[3-[[ethyl(methyl)sulfamoyl]amino]-2,6-difluoro-benzoyl]-1H-pyrrolo[2,3-b]pyridine] | 7.57 nM | – | – | 7.6%
